Values joined by “and” are separate entries in the source; they are usually repeats but may differ in a detail not shown here. Identical values can stand only once.
Experiments:
Format in all cases: cell-based, Human
macrophages = test: Macrophage Viability Assay (CellTiter-Glo); details: for Macrophage viability (CellTiter-Glo Luminescent Cell Viability Assay): 16 hours, three replicate lines
Method: Then, the monocytes isolated by MACS were subsequently cultured in fresh complete medium supplemented with recombinant human granulocyte-macrophage colony-stimulating factor GM-CSF (50 ng/ml) and human recombinant IL-4 (35 ng/ml) to activate differentiated macrophages. After 6 days of culture (on day 7), cells were harvested, pooled together and counted for next use.
The cells from Example 2 were plated into a 96-well flat bottom plate at a density of 0.05×10^6 cells/well. After 2 hours of incubation, the macrophages were well attached to the plate. Then selected small molecule therapeutic agents were added to the well and cocultured for 16 hours. On day 8, macrophage viability was assessed by CellTiter-Glo® Luminescent Cell Viability Assay, according to the manufacture's instruction.

Toledo Cells = test: FACS-based phagocytosis assay, macrophages cocultured with Toledo cells
Method: FACS-based phagocytosis assays were performed to evaluate the phagocytic abilities of macrophages.
Toledo Cells (a tumor cell line, as a target) were labelled with CellTrace™ Far Red and plated into 96-well plate at a density of 0.15×10^6 cells/well for 12 hours. The Macrophages were prepared as discussed above and then labelled with CellTrace Violet. Next, the macrophages were added into the plate as an effector at an effector:target (Toledo) ratio of 1:3, giving a final density of macrophages at 0.05×10^6 cells/well. Macrophages and tumor cells were cocultured for 2-6 h at 37° C. in the presence of the indicated treatments (small molecule therapeutic agents, CD47 antibody, CD20 antibody or combinations). The incubation time depending on the phagocytosis rate, expecting phagocytosis of 5-20% cells.
Then, cells were acquired and data were analyzed.

Calreticulin = test: FACS analysis of expression level of calreticulin on tumor cell surface; details: Toledo cells; for Mean Fluorescence Intensity (MFI) Calreticulin: 12 hours
Method: (§1) For FACS analysis, on the day of analysis (day 1), Toledo cells were seeded into 96 well plate and cultured at a density of 0.2×10^6 cells/well. Then the cells were treated with the selected small molecule therapeutic agents for 12 hours.
(§2) On day 2, cells were harvested, washed twice and then re-suspended in 100 uL FACS buffer subject to FACS analysis. For detection of the expression of calreticulin and CD47, cells were incubated with anti-calreticulin antibody and commercially available anti-CD47 antibody (BD Biosciences, Catalog number: 561249) in dark at 4° C. for 30 mins.
(§3) Then, the cells were subject to FACS analysis. Data was acquired and analyzed.

CD47 = test: FACS analysis of expression level of CD47 on tumor cell surface; details: Toledo cells; for Mean Fluorescence Intensity (MFI) CD47: 12 hours
Method: as §1, §2, §3

[1] = Cpd 0.0016 uM, T4J = 0, R = 0.01 ug/ml
[2] = Cpd 0.0016 uM, T4J = 0.1 ug/ml, R = 0
[3] = Cpd 0.0016 uM, T4J = 0.1 ug/ml, R = 0.01 ug/ml
[4] = Cpd 0.008 uM, T4J = 0, R = 0.01 ug/ml
[5] = Cpd 0.008 uM, T4J = 0.1 ug/ml, R = 0
[6] = Cpd 0.008 uM, T4J = 0.1 ug/ml, R = 0.01 ug/ml
[7] = Cpd 0.04 uM, T4J = 0, R = 0.01 ug/ml
[8] = Cpd 0.04 uM, T4J = 0.1 ug/ml, R = 0
[9] = Cpd 0.04 uM, T4J = 0.1 ug/ml, R = 0.01 ug/ml
[10] = Cpd 0.2 uM, T4J = 0, R = 0.01 ug/ml
[11] = Cpd 0.2 uM, T4J = 0.1 ug/ml, R = 0
[12] = Cpd 0.2 uM, T4J = 0.1 ug/ml, R = 0.01 ug/ml
[13] = Cpd 1 uM, T4J = 0, R = 0.01 ug/ml
[14] = Cpd 1 uM, T4J = 0.1 ug/ml, R = 0
[15] = Cpd 1 uM, T4J = 0.1 ug/ml, R = 0.01 ug/ml

CC1(C)CCC(CN2CCN(c3ccc(C(=O)NS(=O)(=O)c4ccc(NCC5CCOCC5)c([N+](=O)[O-])c4)c(Oc4cnc5[nH]ccc5c4)c3)CC2)=C(c2ccc(Cl)cc2)C1 [Venetoclax]
Macrophage viability (CellTiter-Glo Luminescent Cell Viability Assay) (macrophages; Cpd 0.002 uM): 5968 and 6024 and 5856
Macrophage viability (CellTiter-Glo Luminescent Cell Viability Assay) (macrophages; Cpd 0.008 uM): 6148 and 6172 and 5912
Macrophage viability (CellTiter-Glo Luminescent Cell Viability Assay) (macrophages; Cpd 0.04 uM): 6288 and 6072 and 6264
Macrophage viability (CellTiter-Glo Luminescent Cell Viability Assay) (macrophages; Cpd 0.2 uM): 7260 and 6072 and 5756
Macrophage viability (CellTiter-Glo Luminescent Cell Viability Assay) (macrophages; Cpd 1 uM): 6052 and 6020 and 6088
Macrophage viability (CellTiter-Glo Luminescent Cell Viability Assay) (macrophages; Cpd 5 uM): 5760 and 5660 and 6120
Macrophage viability (CellTiter-Glo Luminescent Cell Viability Assay) (macrophages; Cpd 25 uM): 4696 and 4596 and 4776
Macrophage viability (CellTiter-Glo Luminescent Cell Viability Assay) (macrophages; Cpd 50 uM): 1240 and 1132 and 1108
toxicity to macrophages (macrophages; dose as high as 50 μM): showed toxicity
toxicity to macrophages (macrophages; dose lower than 10 μM): little toxic
macrophage phagocytosis (untreated = 1.00) (Toledo Cells; Cpd 0.0016 uM, T4J = 0, R = 0): 1.00
macrophage phagocytosis (untreated = 1.00) (Toledo Cells; [1]): 1.45
macrophage phagocytosis (untreated = 1.00) (Toledo Cells; [2]): 2.62
macrophage phagocytosis (untreated = 1.00) (Toledo Cells; [3]): 3.23
macrophage phagocytosis (untreated = 1.00) (Toledo Cells; Cpd 0.008 uM, T4J = 0, R = 0): 1.10
macrophage phagocytosis (untreated = 1.00) (Toledo Cells; [4]): 1.54
macrophage phagocytosis (untreated = 1.00) (Toledo Cells; [5]): 2.59
macrophage phagocytosis (untreated = 1.00) (Toledo Cells; [6]): 3.30
macrophage phagocytosis (untreated = 1.00) (Toledo Cells; Cpd 0.04 uM, T4J = 0, R = 0): 1.17
macrophage phagocytosis (untreated = 1.00) (Toledo Cells; [7]): 1.82
macrophage phagocytosis (untreated = 1.00) (Toledo Cells; [8]): 2.64
macrophage phagocytosis (untreated = 1.00) (Toledo Cells; [9]): 3.37
macrophage phagocytosis (untreated = 1.00) (Toledo Cells; Cpd 0.2 uM, T4J = 0, R = 0): 1.41
macrophage phagocytosis (untreated = 1.00) (Toledo Cells; [10]): 1.93
macrophage phagocytosis (untreated = 1.00) (Toledo Cells; [11]): 2.81
macrophage phagocytosis (untreated = 1.00) (Toledo Cells; [12]): 3.64
macrophage phagocytosis (untreated = 1.00) (Toledo Cells; Cpd 1 uM, T4J = 0, R = 0): 1.56
macrophage phagocytosis (untreated = 1.00) (Toledo Cells; [13]): 2.03
macrophage phagocytosis (untreated = 1.00) (Toledo Cells; [14]): 2.91
macrophage phagocytosis (untreated = 1.00) (Toledo Cells; [15]): 3.65
Mean Fluorescence Intensity (MFI) Calreticulin (Calreticulin; 0.008 uM): 117
Mean Fluorescence Intensity (MFI) Calreticulin (Calreticulin; 0.04 uM): 258
Mean Fluorescence Intensity (MFI) Calreticulin (Calreticulin; 0.2 uM): 471
Mean Fluorescence Intensity (MFI) Calreticulin (Calreticulin; 1 uM): 1123
Mean Fluorescence Intensity (MFI) Calreticulin (Calreticulin; 5 uM): 2533
increase of the expression level of calreticulin (Calreticulin; dose of 5 μM): ~120 folds
Mean Fluorescence Intensity (MFI) CD47 (CD47; 0.008 uM): 7873
Mean Fluorescence Intensity (MFI) CD47 (CD47; 0.04 uM): 6201
Mean Fluorescence Intensity (MFI) CD47 (CD47; 0.2 uM): 5206
Mean Fluorescence Intensity (MFI) CD47 (CD47; 1 uM): 4232
Mean Fluorescence Intensity (MFI) CD47 (CD47; 5 uM): 3540
inhibition of CD47 expression (CD47; dose of 5 μM): ~50%

Nc1cccc2c1CN(C1CCC(=O)NC1=O)C2=O (centres unmarked) [Lenalidomide]
Macrophage viability (CellTiter-Glo Luminescent Cell Viability Assay) (macrophages; Cpd 0.002 uM): 5972 and 5872 and 5776
Macrophage viability (CellTiter-Glo Luminescent Cell Viability Assay) (macrophages; Cpd 0.008 uM): 5992 and 5996 and 6180
Macrophage viability (CellTiter-Glo Luminescent Cell Viability Assay) (macrophages; Cpd 0.04 uM): 6152 and 6132 and 5892
Macrophage viability (CellTiter-Glo Luminescent Cell Viability Assay) (macrophages; Cpd 0.2 uM): 6216 and 6088 and 6456
Macrophage viability (CellTiter-Glo Luminescent Cell Viability Assay) (macrophages; Cpd 1 uM): 6016 and 6108 and 6088
Macrophage viability (CellTiter-Glo Luminescent Cell Viability Assay) (macrophages; Cpd 5 uM): 5840 and 6236 and 6108
Macrophage viability (CellTiter-Glo Luminescent Cell Viability Assay) (macrophages; Cpd 25 uM): 5432 and 5752 and 5744
Macrophage viability (CellTiter-Glo Luminescent Cell Viability Assay) (macrophages; Cpd 50 uM): 5208 and 5124 and 5644
toxicity to macrophages (macrophages; dose as high as 50 μM): showed toxicity
toxicity to macrophages (macrophages; dose lower than 10 μM): little toxic
macrophage phagocytosis (untreated = 1.00) (Toledo Cells; Cpd 0.0016 uM, T4J = 0, R = 0): 1.02
macrophage phagocytosis (untreated = 1.00) (Toledo Cells; [1]): 1.46
macrophage phagocytosis (untreated = 1.00) (Toledo Cells; [2]): 2.48
macrophage phagocytosis (untreated = 1.00) (Toledo Cells; [3]): 3.10
macrophage phagocytosis (untreated = 1.00) (Toledo Cells; Cpd 0.008 uM, T4J = 0, R = 0): 1.03
macrophage phagocytosis (untreated = 1.00) (Toledo Cells; [4]): 1.47
macrophage phagocytosis (untreated = 1.00) (Toledo Cells; [5]): 2.57
macrophage phagocytosis (untreated = 1.00) (Toledo Cells; [6]): 3.04
macrophage phagocytosis (untreated = 1.00) (Toledo Cells; Cpd 0.04 uM, T4J = 0, R = 0): 1.08
macrophage phagocytosis (untreated = 1.00) (Toledo Cells; [7]): 1.46
macrophage phagocytosis (untreated = 1.00) (Toledo Cells; [8]): 2.56
macrophage phagocytosis (untreated = 1.00) (Toledo Cells; [9]): 3.06
macrophage phagocytosis (untreated = 1.00) (Toledo Cells; Cpd 0.2 uM, T4J = 0, R = 0): 0.96
macrophage phagocytosis (untreated = 1.00) (Toledo Cells; [10]): 1.51
macrophage phagocytosis (untreated = 1.00) (Toledo Cells; [11]): 2.61
macrophage phagocytosis (untreated = 1.00) (Toledo Cells; [12]): 3.04
macrophage phagocytosis (untreated = 1.00) (Toledo Cells; Cpd 1 uM, T4J = 0, R = 0): 1.01
macrophage phagocytosis (untreated = 1.00) (Toledo Cells; [13]): 1.47
macrophage phagocytosis (untreated = 1.00) (Toledo Cells; [14]): 2.62
macrophage phagocytosis (untreated = 1.00) (Toledo Cells; [15]): 3.07
phagocytic ability of macrophages (Toledo Cells; triple combination: T4J, Rituximab and the small molecule): does not show the synergistic effects
Mean Fluorescence Intensity (MFI) Calreticulin (Calreticulin; 0.008 uM): 69.3
Mean Fluorescence Intensity (MFI) Calreticulin (Calreticulin; 0.04 uM): 70.1
Mean Fluorescence Intensity (MFI) Calreticulin (Calreticulin; 0.2 uM): 73.4
Mean Fluorescence Intensity (MFI) Calreticulin (Calreticulin; 1 uM): 75.6
Mean Fluorescence Intensity (MFI) Calreticulin (Calreticulin; 5 uM): 75.2
Mean Fluorescence Intensity (MFI) CD47 (CD47; 0.008 uM): 8706
Mean Fluorescence Intensity (MFI) CD47 (CD47; 0.04 uM): 8881
Mean Fluorescence Intensity (MFI) CD47 (CD47; 0.2 uM): 8730
Mean Fluorescence Intensity (MFI) CD47 (CD47; 1 uM): 8985
Mean Fluorescence Intensity (MFI) CD47 (CD47; 5 uM): 8443
